Among the test systems are 786-0; A498; A549; CAKI-1; DU-145; HCT-15; HT-29; MDA-MB-435; Malme-3M; NCI-H226; NCI-H522; NCI/ADR-RES; OVCAR-4; SF-268; SK-MEL-28; SN12C; SNB-19; UACC-257.
Common to all, as to assay: NCI-60 cell line screen, 48 h

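A five-concentration, 48-hour dose response in 96-well plates underlies each endpoint, interpolated linearly between surrounding concentrations. At the GI50, growth is halved.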 Active and inactive are the calls of the source. Rule as the data show it: active = GI50 up to about 1.1 µM and inactive = higher.

For `COC(=O)C1(Cc2ccc3c(c2)CCC3)Cc2cc3c(cc2C1=O)CCC3` (stereo not drawn), the GI50 in the test on 786-0 was > 46.5 µM (inactive); with A498, 10.7 µM (inactive); in the test on A549 it was 18.2 µM (inactive); with CAKI-1, 6.73 µM (inactive); in the test on DU-145 it was 44.4 µM (inactive); with HCT-15 it was 26.5 µM. Moreover, the GI50 is 20.3 µM (inactive) with HT-29; 13.3 µM (inactive) in the test on MDA-MB-435; 41.5 µM (inactive) with Malme-3M; 39.2 µM (inactive) with NCI-H226; 8.85 µM (inactive) in the test on NCI-H522; 13.4 µM (inactive) in the test on NCI/ADR-RES. Besides, the GI50 in the test with OVCAR-4 is 18.7 µM (inactive); in the test on SF-268 it was > 46.5 µM (inactive); with SK-MEL-28, 37.2 µM (inactive); in the test with SN12C, 26.9 µM (inactive); with SNB-19, 31.2 µM (inactive); with UACC-257 it was 16.4 µM (inactive).
Regarding `CC1=NN2C(=N)/C(=C/c3ccc(F)cc3)C(=O)N=C2S1`, the GI50 was > 100 µM (inactive) with 786-0; > 100 µM (inactive) in the test with A498; > 100 µM (inactive) in the test on A549; > 100 µM (inactive) in the test with CAKI-1; > 100 µM (inactive) with DU-145; above 100 µM with HCT-15. Besides, the GI50 in the test on HT-29 is > 100 µM (inactive); with MDA-MB-435, > 100 µM (inactive); with Malme-3M, > 100 µM (inactive); with NCI-H226, > 100 µM (inactive); in the test on NCI-H522, > 100 µM (inactive); in the test with NCI/ADR-RES it was 13 µM (inactive). The GI50 in the test with OVCAR-4, in the test with SF-268, in the test on SK-MEL-28, in the test on SN12C, in the test with SNB-19 and in the test on UACC-257 was > 100 µM (inactive) in each case.
On to `Cc1cc(C)c2c(c1)CC1(Cc3c(ccc(C)c3C)C1=O)C2=O` (stereo not drawn), for which the GI50 was > 100 µM (inactive) in the test on 786-0; > 100 µM (inactive) in the test on A498; > 100 µM (inactive) in the test on A549; > 100 µM (inactive) in the test with CAKI-1; > 100 µM (inactive) with DU-145; above 100 µM in the test with HCT-15. Besides, the GI50 in the test with HT-29, in the test with MDA-MB-435, with Malme-3M, in the test on NCI-H226, with NCI-H522 and with NCI/ADR-RES was > 100 µM (inactive) in each case. For the same compound, the GI50 in the test with OVCAR-4, in the test with SF-268, in the test on SK-MEL-28, in the test on SN12C, in the test on SNB-19 and with UACC-257 was > 100 µM (inactive) each time.
Regarding `C[C@]12CC/C(=N\O)C=C1CC[C@@H]1[C@@H]2CC[C@]2(C)C(=N/O)/C(=C/c3ccc([N+](=O)[O-])cc3)C[C@@H]12`, the GI50 with 786-0 was 6.65 µM (inactive); with A498 it was 13 µM (inactive); in the test on A549 it was 3.94 µM (inactive); in the test with CAKI-1, 2.29 µM (inactive); in the test on DU-145, 5.35 µM (inactive); with HCT-15 it was 3.44 µM. Besides, the GI50 in the test on HT-29 is 4.94 µM (inactive); with MDA-MB-435, 3.6 µM (inactive); in the test on Malme-3M, 15 µM (inactive); with NCI-H226 it was 12.9 µM (inactive); with NCI-H522, 2.59 µM (inactive); with NCI/ADR-RES it was 5.13 µM (inactive). Besides, the GI50 with OVCAR-4 is 4.73 µM (inactive); in the test with SF-268 it was 3.16 µM (inactive); in the test with SK-MEL-28, 9.25 µM (inactive); with SN12C, 4.27 µM (inactive); in the test on SNB-19, 7.5 µM (inactive); in the test on UACC-257, 4.66 µM (inactive).
As for `CCN(CC)CCOc1ccc(N2C(=O)c3cccc4cc([N+](=O)[O-])cc(c34)C2=O)cc1`, the GI50 in the test with 786-0 is 4.76 µM (inactive); in the test on A498 it was 9.62 µM (inactive); with A549 it was 0.977 µM (active); in the test with CAKI-1, 11.5 µM (inactive); in the test with DU-145, 10.8 µM (inactive); with HCT-15, 6.64 µM. Besides, the GI50 with HT-29 was 4.91 µM (inactive); in the test on MDA-MB-435 it was 11.5 µM (inactive); with Malme-3M, 13.8 µM (inactive); in the test on NCI-H226, 3.79 µM (inactive); in the test with NCI-H522, 4.75 µM (inactive); with NCI/ADR-RES it was 16.8 µM (inactive). For the same compound, the GI50 is 16.3 µM (inactive) in the test on OVCAR-4; 10.9 µM (inactive) with SF-268; 12.5 µM (inactive) in the test on SK-MEL-28; 17.4 µM (inactive) in the test with SN12C; 12.8 µM (inactive) in the test on SNB-19; 13.1 µM (inactive) with UACC-257.
As for `Clc1ccc2c(c1)CC1C[N+]3=C(CCCC3)C1=C2` (stereo not drawn), the GI50 in the test on 786-0 was > 100 µM (inactive); in the test on A498, 72.1 µM (inactive); in the test with A549, 39.6 µM (inactive); in the test with CAKI-1, > 100 µM (inactive); with DU-145, > 100 µM (inactive); in the test on HCT-15 it was above 100 µM. In addition, the GI50 is 36.6 µM (inactive) in the test on HT-29; 54.2 µM (inactive) in the test with MDA-MB-435; 36.6 µM (inactive) in the test on Malme-3M; 76.6 µM (inactive) with NCI-H226; 47.4 µM (inactive) in the test with NCI-H522; > 100 µM (inactive) in the test on NCI/ADR-RES. Also, the GI50 in the test on OVCAR-4 is 37.6 µM (inactive); in the test on SF-268, 90.4 µM (inactive); in the test with SK-MEL-28, > 100 µM (inactive); in the test on SN12C, > 100 µM (inactive); with SNB-19, 48.3 µM (inactive); with UACC-257 it was 43.9 µM (inactive).
Consider `C=C[C@H]1CN2CCc3c([nH]c4c([C@@H]5CCCN5C)c(O)ccc34)[C@@H]2C[C@@H]1C[C@H]1c2[nH]c3ccccc3c2CCN1C`, for which the GI50 with 786-0 is 1.4 µM (inactive); with A498, 1.85 µM (inactive); with A549, 1.5 µM (inactive); in the test with CAKI-1, 1.71 µM (inactive); in the test on DU-145 it was 1.69 µM (inactive); in the test with HCT-15, 1.28 µM. Besides, the GI50 in the test on HT-29 is 1.28 µM (inactive); in the test on MDA-MB-435, 1.51 µM (inactive); in the test with Malme-3M, 1.85 µM (inactive); with NCI-H226, 2.05 µM (inactive); in the test on NCI-H522, 1.85 µM (inactive); with NCI/ADR-RES, 1.85 µM (inactive). In addition, the GI50 is 1.71 µM (inactive) with OVCAR-4; 1.74 µM (inactive) in the test with SF-268; 1.79 µM (inactive) with SK-MEL-28; 1.82 µM (inactive) with SN12C; 1.64 µM (inactive) in the test with SNB-19; 1.91 µM (inactive) in the test on UACC-257.
With `CCOc1cc2c(cc1O)CC[C@@H]1[C@@H]2CC[C@]2(C)C(N)CC[C@@H]12` (stereo partly drawn), the GI50 in the test on 786-0 is 3.5 µM (inactive); in the test on A498, 5.52 µM (inactive); in the test on A549, 3.3 µM (inactive); with CAKI-1, 4.22 µM (inactive); in the test with DU-145 it was 2.36 µM (inactive); in the test with HCT-15 it was 3.4 µM. For the same compound, the GI50 was 2.44 µM (inactive) in the test on HT-29; 1.63 µM (inactive) in the test on MDA-MB-435; 11.8 µM (inactive) in the test with Malme-3M; 2.77 µM (inactive) with NCI-H226; 3.45 µM (inactive) with NCI-H522; 2.69 µM (inactive) in the test with NCI/ADR-RES. Moreover, the GI50 in the test on OVCAR-4 was 19.3 µM (inactive); with SF-268, 3.57 µM (inactive); in the test on SK-MEL-28, 9.62 µM (inactive); in the test on SN12C, 4.09 µM (inactive); in the test on SNB-19, 4.83 µM (inactive); in the test on UACC-257 it was 3.44 µM (inactive).
For the compound `C[C@@H](C[C@H]1OC(C)(C)O[C@@H]1C(C)(C)O)[C@H]1CC=C2[C@]3(C)[C@H](O)C[C@H]4C(C)(C)[C@H](O)CC[C@]4(C)[C@H]3CC[C@]21C`, the GI50 in the test on 786-0 was 9.73 µM (inactive); in the test on A498, 10.7 µM (inactive); in the test with A549 it was 5.86 µM (inactive); in the test on CAKI-1, 10.8 µM (inactive); in the test with DU-145, 14.1 µM (inactive); in the test with HCT-15, 6.03 µM. Besides, the GI50 was 2.9 µM (inactive) in the test on HT-29; 8.28 µM (inactive) with MDA-MB-435; 14 µM (inactive) in the test on Malme-3M; 7.62 µM (inactive) in the test with NCI-H226; 8.24 µM (inactive) in the test with NCI-H522; 7.69 µM (inactive) in the test with NCI/ADR-RES. For the same compound, the GI50 was 8.51 µM (inactive) with OVCAR-4; 10.5 µM (inactive) in the test on SF-268; 9.95 µM (inactive) with SK-MEL-28; 3.32 µM (inactive) with SN12C; 10.7 µM (inactive) with SNB-19; 8.81 µM (inactive) in the test with UACC-257.
Take `COCC#C[C@@]1(O)CCCCC1CC(OC)OC` (stereo partly drawn): the GI50 with 786-0 was > 100 µM (inactive); in the test with A498, 38.4 µM (inactive); with A549, > 100 µM (inactive); with CAKI-1 it was > 100 µM (inactive); with DU-145, > 100 µM (inactive); in the test on HCT-15, 76.2 µM. In addition, the GI50 is > 100 µM (inactive) with HT-29; 62.7 µM (inactive) with MDA-MB-435; 64.9 µM (inactive) in the test on Malme-3M; > 100 µM (inactive) with NCI-H226; 24.7 µM (inactive) with NCI-H522; > 100 µM (inactive) in the test on NCI/ADR-RES. Further, the GI50 with OVCAR-4 was 50.4 µM (inactive); with SF-268, > 100 µM (inactive); in the test on SK-MEL-28, > 100 µM (inactive); in the test with SN12C it was > 100 µM (inactive); in the test on SNB-19 it was > 100 µM (inactive); in the test with UACC-257, > 100 µM (inactive).
Turning to `O=C(O)CC(Cc1ccccc1Cl)C(=O)O` (stereo not drawn), the GI50 in the test with 786-0 was > 100 µM (inactive); with A498, > 100 µM (inactive); with A549, > 100 µM (inactive); with CAKI-1 it was > 100 µM (inactive); in the test with DU-145 it was > 100 µM (inactive); with HCT-15 it was above 100 µM. Besides, the GI50 with HT-29, in the test with MDA-MB-435, with Malme-3M, with NCI-H226, with NCI-H522 and in the test on NCI/ADR-RES was > 100 µM (inactive) in each case. The GI50 with OVCAR-4, in the test on SF-268, in the test on SK-MEL-28, with SN12C, in the test with SNB-19 and in the test with UACC-257 was > 100 µM (inactive) throughout.

The values are drawn from ChEMBL document CHEMBL1201862, “PubChem BioAssay data set” (2004).
